# Experimental data: patent publication EP4817688A2, “DEGRADING PKCß1 TO TREAT CANCER” (Mayo Foundation for Medical Education and Research, priority 2020, dated 2022)
# Several values for one entry are separate records, joined by “and”; a condition that tells them apart may be missing. Identical values can stand only once. Like-named read-outs stand apart in the source and are kept apart here.
# Experiment: pharmacokinetics in female CD1 mice, plasma by UPLC-MS/MS
# Type: in vivo
# Settings: for Tmax: read-out: time of peak plasma concentration (converted); for half-life: read-out: terminal half-life (converted)
# Method: ENDX PROTAC 7 and PROTAC 9 pharmacokinetics were characterized in female CD1 mice. Blood samples were collected from mice anesthetized under isoflurane via retro-orbital eye bleed into tubes containing EDTA and immediately chilled on ice. NaF was added to the EDTA collection tubes to help stabilize the drug in whole blood for the second IV and IP studies with ENDX PROTAC 9, and for the IV and oral studies with PROTAC 7. Plasma and red blood cells were separated immediately by centrifugation in a refrigerated centrifuge at 4°C. The plasma was transferred to a separate tube and immediately frozen at -20°C.
# For IV dosing, ENDX PROTAC 9 was dissolved in 10% DMSO, 10% PEG 400, and 80% normal saline for a final concentration of 0.2 mg/mL ENDX PROTAC 9 for the 1 mg/kg IV doses. ENDX PROAC 7 was dissolved in 15% DMSO, 9.44% PEG400, and 55% normal saline for a final concentration of 0.19 mg/mL for the 1 mg/kg IV doses. Blood samples (3 mice per time-point) were collected 5 minutes, 15 minutes, 0.5 hour, 1 hour, 2 hours, 4 hours, 8 hours, and 24 hours after administration of the ENDX PROTAC. […] For oral dosing, ENDX PROTAC 9 (10 mg/kg) and ENDX PROTAC 7 (10 mg/kg) were suspended in 1 mM ascorbic acid:PEG400, 1:1 v/v for a final concentration of 1.0 mg/mL ENDX PROTAC. Blood samples (three mice per time-point) were collected 15 minutes, 0.5 hour, 1 hour, 2 hours, 4 hours, 6 hours, 8 hours, and 24 hours after administering the ENDX PROTAC. For I.P. dosing, ENDX PROTAC 9 (4 mg/kg) was prepared in 1 mM ascorbic acid:PEG400, 1:1 v/v for a final concentration of 0.4 mg/mL ENDX PROTAC 9. Blood samples (three mice per time-point) were collected 15 minutes, 0.5 hour, 1 hour, 2 hours, 4 hours, 6 hours, 8 hours, and 24 hours after administration. Plasma concentrations of ENDX PROTAC 7 and 9 were measured using UPLC-MS/MS.
# [1] = mouse, plasma, iv, 1 mg/kg, I.V. 1 mg/kg, first study without NaF
# [2] = mouse, plasma, iv, 1 mg/kg, I.V. 1 mg/kg, second study with NaF
smiles,measurement,setting,value
"CCC(=C(c1ccc(O)cc1)c1ccc(OCCN(C)C(=O)COCCOCCNC(=O)Cc2ccc3c(c2)CN(C2CCC(=O)NC2=O)C3=O)cc1)c1ccccc1 (stereo not shown) [TC-Pr-009, 2-[2-(2-2-[2-(2,6-dioxopiperidin-3-yl)-1-oxo-2,3-dihydro-1H-isoindol-5-yl]acetamidoethoxy)ethoxy]-N-(2-4-[1-(4-hydroxyphenyl)-2-phenylbut-1-en-1-yl]phenoxyethyl)-N-methylacetamide]",stability in whole blood,inferred from IV studies with and without NaF,unstable in whole blood
same,Cmax,"mouse, plasma, ip, 4 mg/kg, I.P. 4 mg/kg, read-out: peak plasma concentration",135 ng/mL
same,bioavailability,"mouse, plasma, ip, I.P. 4 mg/kg, read-out: bioavailability of the I.P. dose",225%
same,Tmax,"mouse, plasma, ip, I.P. 4 mg/kg",30 min
same,clearance,[1],730 mL/min/kg
same,half-life,[1],60 min
same,Cmax,"mouse, plasma, iv, 1 mg/kg, I.V. 1 mg/kg, samples collected without added NaF, read-out: peak plasma concentration",47.2 ng/mL
same,clearance,[2],478 mL/min/kg
same,half-life,[2],39.6 min
same,Cmax,"mouse, plasma, iv, 1 mg/kg, I.V. 1 mg/kg, second study, NaF added to EDTA tubes, read-out: peak plasma concentration",70.9 ng/mL
same,concentration at 0.5 h,"mouse, plasma, iv, 1 mg/kg, plasma, IV 1 mg/kg, EDTA without NaF, 30 minutes, individual mice, read-out: Concentration ENDX PROTAC 9",1.81 ng/mL
same,concentration at 0.5 h,"mouse, plasma, iv, 1 mg/kg, plasma, IV 1 mg/kg, all data (both IV studies), 30 minutes, read-out: Concentration ENDX PROTAC 9",2.83 ng/mL
same,Tmax,"mouse, plasma, iv, I.V. 1 mg/kg, samples collected without added NaF",5 min
same,Cmax,"mouse, plasma, po, 10 mg/kg, oral 10 mg/kg, read-out: average peak plasma concentration",11.1 ng/mL
same,concentration at 0.5 h,"mouse, plasma, po, 10 mg/kg, plasma, PO 10 mg/kg, 30 minutes, individual mice, read-out: Concentration ENDX PROTAC 9",0.74 ng/mL
same,concentration at 8 h,"mouse, plasma, po, 10 mg/kg, plasma, PO 10 mg/kg, 480 minutes, individual mice, read-out: Concentration ENDX PROTAC 9",0.08 ng/mL
same,concentration at 0.25 h,"mouse, plasma, po, 10 mg/kg, plasma, TABLE 7, titled PO pk (10 mg/kg), 15 minutes, individual mice, read-out: Concentration ENDX PROTAC 9",108 ng/mL
same,concentration at 0.5 h,"mouse, plasma, po, 10 mg/kg, plasma, TABLE 7, titled PO pk (10 mg/kg), 30 minutes, individual mice, read-out: Concentration ENDX PROTAC 9",166 ng/mL
same,concentration at 1 h,"mouse, plasma, po, 10 mg/kg, plasma, TABLE 7, titled PO pk (10 mg/kg), 60 minutes, individual mice, read-out: Concentration ENDX PROTAC 9",131 ng/mL
same,bioavailability,"mouse, plasma, oral 10 mg/kg vs IV 1 mg/kg, read-out: Oral bioavailability",8.8%
same,Tmax,"mouse, plasma, oral 10 mg/kg",60 min
same,Concentration ENDX PROTAC 9,"plasma, IV 1 mg/kg, EDTA without NaF, 5 minutes, individual mice, listed as ENDX PROTAC 9, 1 mg/kg",49.449 ng/mL and 47.9659 ng/mL and 12.7855 ng/mL
same,Concentration ENDX PROTAC 9,"plasma, IV 1 mg/kg, EDTA without NaF, 15 minutes, individual mice, listed as ENDX PROTAC 9, 1 mg/kg",44.1034 ng/mL and 9.4992 ng/mL and 7.241 ng/mL
same,Concentration ENDX PROTAC 9,"plasma, IV 1 mg/kg, EDTA without NaF, 30 minutes, individual mice, listed as ENDX PROTAC 9, 1 mg/kg",1.662 ng/mL
same,Concentration ENDX PROTAC 9,"plasma, IV 1 mg/kg, EDTA without NaF, 60 minutes, individual mice, listed as ENDX PROTAC 9, 1 mg/kg",0.5069 ng/mL and 0.2706 ng/mL and 0.0179 ng/mL
same,Concentration ENDX PROTAC 9,"plasma, IV 1 mg/kg, EDTA without NaF, 120 minutes, individual mice, listed as ENDX PROTAC 9, 1 mg/kg",0.8988 ng/ml and 0.4446 ng/ml and BLD
same,Concentration ENDX PROTAC 9,"plasma, IV 1 mg/kg, EDTA without NaF, 240 minutes, individual mice, listed as ENDX PROTAC 9, 1 mg/kg",BLD and 0.0197 ng/ml and 0.3141 ng/ml
same,Concentration ENDX PROTAC 9,"plasma, IV 1 mg/kg, EDTA without NaF, 480 minutes, individual mice, listed as ENDX PROTAC 9, 1 mg/kg",0 ng/ml and BLD (2×)
same,Concentration ENDX PROTAC 9,"plasma, IV 1 mg/kg, EDTA without NaF, 1440 minutes, individual mice, listed as ENDX PROTAC 9, 1 mg/kg",BLD and 0 ng/ml (2×)
same,Concentration ENDX PROTAC 9,"plasma, IV 1 mg/kg, all data (both IV studies), 30 minutes, listed as ENDX PROTAC 9, 1 mg/kg",1.662 ng/mL
same,Concentration ENDX PROTAC 9,"plasma, IV 1 mg/kg, all data (both IV studies), 120 minutes, listed as ENDX PROTAC 9, 1 mg/kg",BLD
same,Concentration ENDX PROTAC 9,"plasma, IV 1 mg/kg, all data (both IV studies), 240 minutes, listed as ENDX PROTAC 9, 1 mg/kg",BLD
same,Concentration ENDX PROTAC 9,"plasma, IV 1 mg/kg, second study (NaF), 5 minutes, individual mice, listed as ENDX PROTAC 9, 1 mg/kg",86.31 ng/mL and 91.46 ng/mL and 34.87 ng/mL
same,Concentration ENDX PROTAC 9,"plasma, IV 1 mg/kg, second study (NaF), 15 minutes, individual mice, listed as ENDX PROTAC 9, 1 mg/kg",8.2 ng/mL and 33.8 ng/mL and 10.72 ng/mL
same,Concentration ENDX PROTAC 9,"plasma, IV 1 mg/kg, second study (NaF), 60 minutes, individual mice, listed as ENDX PROTAC 9, 1 mg/kg",1.18 ng/mL and 1.26 ng/mL and 12.64 ng/mL
same,Concentration ENDX PROTAC 9,"plasma, IV 1 mg/kg, second study (NaF), 240 minutes, individual mice, listed as ENDX PROTAC 9, 1 mg/kg",0.19 ng/mL and 1.11 ng/mL and 0.39 ng/mL
same,Concentration ENDX PROTAC 9,"plasma, PO 10 mg/kg, 15 minutes, individual mice, listed as ENDX PROTAC 9, 10 mg/kg",6.95 ng/mL and 4.77 ng/mL and 2.11 ng/mL
same,Concentration ENDX PROTAC 9,"plasma, PO 10 mg/kg, 30 minutes, individual mice, listed as ENDX PROTAC 9, 10 mg/kg",0.58 ng/mL and 1.05 ng/mL
same,Concentration ENDX PROTAC 9,"plasma, PO 10 mg/kg, 60 minutes, individual mice, listed as ENDX PROTAC 9, 10 mg/kg",6.78 ng/mL and 15.8 ng/mL and 10.6 ng/mL
same,Concentration ENDX PROTAC 9,"plasma, PO 10 mg/kg, 120 minutes, individual mice, listed as ENDX PROTAC 9, 10 mg/kg",0.25 ng/ml and BLD* and 0.55 ng/ml
same,Concentration ENDX PROTAC 9,"plasma, PO 10 mg/kg, 240 minutes, individual mice, listed as ENDX PROTAC 9, 10 mg/kg",0.9 ng/mL and 0.16 ng/mL and 0.14 ng/mL
same,Concentration ENDX PROTAC 9,"plasma, PO 10 mg/kg, 360 minutes, individual mice, listed as ENDX PROTAC 9, 10 mg/kg",2.61 ng/ml and BLD and 0.05 ng/ml
same,Concentration ENDX PROTAC 9,"plasma, PO 10 mg/kg, 480 minutes, individual mice, listed as ENDX PROTAC 9, 10 mg/kg",BLD
same,Concentration ENDX PROTAC 9,"plasma, PO 10 mg/kg, 1440 minutes, individual mice",BLD
same,Concentration ENDX PROTAC 9,"plasma, TABLE 7, titled PO pk (10 mg/kg), 15 minutes, individual mice, listed as ENDX PROTAC 9, 10 mg/kg",111.19 ng/mL and 133.09 ng/mL
same,Concentration ENDX PROTAC 9,"plasma, TABLE 7, titled PO pk (10 mg/kg), 30 minutes, individual mice, listed as ENDX PROTAC 9, 10 mg/kg",156.42 ng/mL and 83.56 ng/mL
same,Concentration ENDX PROTAC 9,"plasma, TABLE 7, titled PO pk (10 mg/kg), 60 minutes, individual mice, listed as ENDX PROTAC 9, 10 mg/kg",141.51 ng/mL and 93.93 ng/mL
same,Concentration ENDX PROTAC 9,"plasma, TABLE 7, titled PO pk (10 mg/kg), 120 minutes, individual mice, listed as ENDX PROTAC 9, 10 mg/kg",60.32 ng/mL and 106.7 ng/mL and 40.51 ng/mL
same,Concentration ENDX PROTAC 9,"plasma, TABLE 7, titled PO pk (10 mg/kg), 240 minutes, individual mice, listed as ENDX PROTAC 9, 10 mg/kg",17.29 ng/mL and 5.09 ng/mL and 30.55 ng/mL
same,Concentration ENDX PROTAC 9,"plasma, TABLE 7, titled PO pk (10 mg/kg), 360 minutes, individual mice, listed as ENDX PROTAC 9, 10 mg/kg",1.64 ng/mL and 0.75 ng/mL and 2.62 ng/mL
same,Concentration ENDX PROTAC 9,"plasma, TABLE 7, titled PO pk (10 mg/kg), 480 minutes, individual mice, listed as ENDX PROTAC 9, 10 mg/kg",7.23 ng/mL and 1.2 ng/mL
same,Concentration ENDX PROTAC 9,"plasma, TABLE 7, titled PO pk (10 mg/kg), 1440 minutes, individual mice, listed as ENDX PROTAC 9, 10 mg/kg",1.01 ng/mL and 0.33 ng/mL and 0.12 ng/mL
